Results as given in US20090131470A1, “PYRAZOLE-SUBSTITUTED BENZIMIDAZOLE DERIVATIVES FOR USE IN THE TREATMENT OF CANCER AND AUTOIMMUNE DISORDERS” (priority 2005, published 2009).

How the values were obtained:
Assay type in all cases: biochemical
Akt1 = molecular target: T1, Akt1 (Homo sapiens, UniProt P31749); assay: Akt1 kinase assay (Histone H1 substrate); conditions: 200 μM ATP, read-out: AKT-1 IC50
T1 construct: purchased Upstate
Description: (§1) Assays for the cyclin dependent kinase activity were carried out by monitoring the phosphorylation of a synthetic peptide, HATTPKKKRK. The assay mixture containing the inhibitor and CDK-2 enzyme, complexed with cyclin A (0.4 U/ml) was mixed together in a microtiter plate in a final volume of 50 μl and incubated for 40 min at 30° C. The assay mixture contained 0.1 mM unlabeled ATP, 0.01 μCi/μl ^33P-γ-ATP, 0.03 mM peptide, 0.1 mg/ml BSA, 7.5 mM magnesium acetate, 50 mM HEPES-NaOH, pH 7.5. The reaction was stopped by adding 50 μl of 50 mM phosphoric acid. 90 μl of the mixture were transferred to a pre-wetted 96-well Multiscreen MAPHNOB filtration plate (Millipore) and filtered on a vacuum manifold. The filter plate was washed with 3 successive additions of 200 μl 50 mM phosphoric acid and then with 100 μl methanol. The filtration plate was dried for 10 min at 65° C., scintillant added and phosphorylated peptide quantified in a scintillation counter (Trilux, PerkinElmer)
Protocol for the Akt assay is the same for CDK2 except that, 3 nM Akt1 (Upstate) was used with Histone H1 as substrate with a final ATP concentration of 200 μM. The reaction was incubated at 30° C. for 40 minutes.

PDK1 = molecular target: T2, PDK1 (Homo sapiens, UniProt O15530); assay: PDK1 kinase assay (33P peptide phosphorylation); conditions: 0.01 mM ATP, 60 min at 30° C.; read-out: PDK-1 IC50
T2 sequence (O15530 1-556): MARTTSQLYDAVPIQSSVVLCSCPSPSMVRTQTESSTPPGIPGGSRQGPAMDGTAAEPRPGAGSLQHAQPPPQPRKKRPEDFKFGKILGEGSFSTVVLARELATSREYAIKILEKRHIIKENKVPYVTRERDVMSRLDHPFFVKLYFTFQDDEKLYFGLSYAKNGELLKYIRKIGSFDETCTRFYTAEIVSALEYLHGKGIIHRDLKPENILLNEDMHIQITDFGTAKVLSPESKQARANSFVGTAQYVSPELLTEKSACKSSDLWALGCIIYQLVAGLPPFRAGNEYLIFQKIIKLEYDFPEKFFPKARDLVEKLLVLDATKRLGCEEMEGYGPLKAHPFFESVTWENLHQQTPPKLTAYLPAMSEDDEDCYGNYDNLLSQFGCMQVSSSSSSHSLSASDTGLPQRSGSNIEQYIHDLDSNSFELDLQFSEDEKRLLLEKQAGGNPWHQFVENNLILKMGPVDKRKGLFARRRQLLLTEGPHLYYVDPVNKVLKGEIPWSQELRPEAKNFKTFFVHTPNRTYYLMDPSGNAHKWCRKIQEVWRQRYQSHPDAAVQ
Description: (§2) The assay mixture containing the inhibitor and PDK1 enzyme was mixed together in a microtiter plate in a final volume of 50 μl and incubated for 60 min at 30° C. The assay mixture contained 0.01 mM unlabeled ATP, 0.01 μCi/μl ^33P-γ-ATP, 0.075 mM peptide, 0.1 mg/ml BSA, 7.5 mM magnesium acetate, 0.05M Tris.HCl, pH 7.5, 0.5% 2-mercaptoethanol. The reaction was stopped by adding 50 μl of 50 mM phosphoric acid. 90 μl of the mixture were transferred to a pre-wetted 96-well Multiscreen MAPHNOB filtration plate (Millipore) and filtered on a vacuum manifold. The filter plate was washed with 3 successive additions of 200 μl 50 mM phosphoric acid and then with 100 μl methanol. The filtration plate was dried for 10 min at 65° C., scintillant added and phosphorylated peptide quantified in a scintillation counter (Trilux, PerkinElmer)

PKA = molecular target: T3, PKA (Homo sapiens, UniProt P17612); assay: PKA kinase assay (Kemptide substrate); conditions: 100 μM ATP
T3 construct: purchased Upstate
Description: as §1, with “The” for “Assays for the cyclin dependent kinase activity were carried out by monitoring the phosphorylation of a synthetic peptide, HATTPKKKRK. The”
The PKA assay was incubated at 30° C. for 30 minutes.

[1] = molecular target: CDK-2 enzyme, complexed with cyclin A (Homo sapiens, UniProt P24941); assay: CDK2 kinase assay (33P peptide phosphorylation); conditions: 0.1 mM ATP, cyclin A complex
Description: as §1, with “The” for “Assays for the cyclin dependent kinase activity were carried out by monitoring the phosphorylation of a synthetic peptide, HATTPKKKRK. The”

GST-Chk1 enzyme = molecular target: T4, GST-Chk1 enzyme (Homo sapiens, UniProt O14757); assay: Chk1 kinase assay (33P Chktide phosphorylation); conditions: 0.01 mM ATP, 40 minutes at 30° C.; read-out: CHK-1 IC50
T4 sequence (O14757 1-476): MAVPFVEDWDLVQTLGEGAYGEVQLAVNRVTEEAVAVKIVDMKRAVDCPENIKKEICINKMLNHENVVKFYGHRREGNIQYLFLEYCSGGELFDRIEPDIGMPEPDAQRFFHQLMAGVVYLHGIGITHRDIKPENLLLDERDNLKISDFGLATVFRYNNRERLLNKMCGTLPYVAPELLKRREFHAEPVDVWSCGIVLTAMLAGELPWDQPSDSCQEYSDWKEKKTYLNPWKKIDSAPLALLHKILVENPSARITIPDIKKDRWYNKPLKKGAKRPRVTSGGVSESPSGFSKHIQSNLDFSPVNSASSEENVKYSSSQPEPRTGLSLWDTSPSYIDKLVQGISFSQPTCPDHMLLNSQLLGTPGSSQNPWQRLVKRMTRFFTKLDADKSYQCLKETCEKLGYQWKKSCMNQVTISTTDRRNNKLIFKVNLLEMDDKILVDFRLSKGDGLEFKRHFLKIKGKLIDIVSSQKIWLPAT
Description: as §2, with “Chk1” for “PDK1”, “40 minutes” for “60 min”, “The assay mixture contained 0.01 mM unlabeled ATP, 0.01 μCi/μl ^33P-γ-ATP, 0.075 mM peptide, 0.1 mg/ml BSA, 7.5 mM magnesium acetate, 0.05M Tris.HCl, pH 7.5, 0.5% 2-mercaptoethanol.” left out, “was” for “were”, “multi-screen” for “Multiscreen”

T1 sequence (P31749 whole entry, species assumed): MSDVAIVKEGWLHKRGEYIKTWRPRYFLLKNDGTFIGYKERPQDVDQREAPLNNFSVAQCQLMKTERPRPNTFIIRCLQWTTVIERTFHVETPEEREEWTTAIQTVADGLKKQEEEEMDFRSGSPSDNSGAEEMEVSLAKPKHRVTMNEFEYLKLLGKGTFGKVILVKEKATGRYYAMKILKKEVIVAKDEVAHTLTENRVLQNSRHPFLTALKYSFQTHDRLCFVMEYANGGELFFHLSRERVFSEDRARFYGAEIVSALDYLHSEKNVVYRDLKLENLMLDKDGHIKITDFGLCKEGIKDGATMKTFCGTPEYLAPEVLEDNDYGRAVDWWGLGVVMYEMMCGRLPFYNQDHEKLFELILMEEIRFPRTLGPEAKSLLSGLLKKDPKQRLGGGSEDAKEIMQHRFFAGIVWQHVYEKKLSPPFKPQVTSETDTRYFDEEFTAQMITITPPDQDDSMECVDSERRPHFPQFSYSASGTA

Row | SMILES | IC50 (Akt1) [µM] | IC50 (PDK1) [nM] | IC50 (PKA) [µM] | IC50 [1] [µM] | IC50 (GST-Chk1 enzyme) [nM]
1 | Cc1[nH]nc(-c2nc3cc4ccccc4cc3[nH]2)c1C(=O)NCC1CCNC1 (centres unmarked) [Example 27] | > 50 | 143 | 8.31 | 6.24 | 4
2 | Cc1[nH]nc(-c2nc3cc(Cl)c(C(C)C)cc3[nH]2)c1C(=O)NC1CN2CCC1CC2 (centres unmarked) [Example 44] | > 10 | 140 | 12 | > 50 | 91
3 | Cc1[nH]nc(-c2nc3cc(F)c(F)cc3[nH]2)c1C(=O)NC1CCNCC1 [Example 13] | > 50 | 520 | 19.3 | 7.92 | 508
4 | Cc1[nH]nc(-c2nc3ccc(C(=O)NCC(C)c4ccccc4)cc3[nH]2)c1C(=O)NC1CCNCC1 (centres unmarked) [Example 32] | 18.1 | 36 | 6.5 | 15.6 | 3
5 | CCOC(=O)c1ccc2nc(-c3n[nH]c(C)c3C(=O)NC3CCNCC3)[nH]c2c1 [Example 6, 2-[5-Methyl-4-(piperidin-4-ylcarbamoyl)-1H-pyrazol-3-yl]-3H-benzimidazole-5-carboxylic Acid Ethyl Ester] | > 50 | 433 | 40.2 | 39.5 | 23
6 | Cc1[nH]nc(-c2nc3c(F)c(F)ccc3[nH]2)c1C(=O)NC1CCNCC1 [Example 12] | > 50 | 485 | 20.9 | 10.5 | 609
7 | Cc1[nH]nc(-c2nc3cc(F)c(NC(=O)C4CC4)cc3[nH]2)c1C(=O)NC1CCN(C)CC1 [Example 34] | 44.1 | 216 | 28.4 | 20.6 | 13
8 | Cc1[nH]nc(-c2nc3ccccc3[nH]2)c1C(=O)NC1CCN(Cc2ccccc2)CC1 [Example 10] | > 50 | 435 | 29.1 | 44 | 107
9 | Cc1[nH]nc(-c2nc3ccccc3[nH]2)c1C(=O)NCC1CCNCC1 [Example 9] | 11.1 | 129 | 7.51 | 47 | 208
10 | Cc1[nH]nc(-c2nc3cc(Cl)ccc3[nH]2)c1C(=O)NC1CCNCC1 [Example 17] | > 50 | 189 | 9.03 | 10.6 | 222
11 | Cc1cc2nc(-c3n[nH]c(C)c3C(=O)NC3CCN(C)CC3)[nH]c2cc1C [Example 29] | > 50 | 180 | 5.98 | 8.24 | 16
12 | Cc1[nH]nc(-c2nc3ccc(NC(=O)CC(C)C)cc3[nH]2)c1C(=O)NC1CCN(C)CC1 [Example 33] | 47.5 | 95 | 13.1 | 21.3 | 3
13 | COCCNC(=O)c1ccc2nc(-c3n[nH]c(C)c3C(=O)NC3CCNCC3)[nH]c2c1 [Example 31] | 31.4 | 73 | 8.04 | 11.4 | 2
14 | Cc1[nH]nc(-c2nc3ccc(C(=O)NC4CCCC4)cc3[nH]2)c1C(=O)NC1CCNCC1 [Example 7, 2-[5-Methyl-4-(piperidin-4-ylcarbamoyl)-1H-pyrazol-3-yl]-3H-benzimidazole-5-carboxylic Acid Cyclopentylamide] | 28.6 | 70 | 12.6 | 9.24 | 43
15 | Cc1[nH]nc(-c2nc3cc4ccccc4cc3[nH]2)c1C(=O)NC1CCNCC1 [Example 5, 5-Methyl-3-(1H-naphtho[2,3-d]imidazol-2-yl)-1H-pyrazole-4-carboxylic Acid piperidine-4-ylamide] | > 50 | 58 | 3.24 | 4.54 | 10
16 | Cc1[nH]nc(-c2nc3ccccc3[nH]2)c1C(=O)NCCCCN [Example 16] | > 50 | 249 | 20.7 | 43.5 | 213
17 | Cc1[nH]nc(-c2nc3ccccc3[nH]2)c1C(=O)NC1CCCNC1 (centres unmarked) [Example 19] | > 50 | 50 | 10.9 | 4.47 | 58
18 | Cc1[nH]nc(-c2nc3cc4cn[nH]c4cc3[nH]2)c1C(=O)NCC1CCNCC1 [Example 22] | 36.1 | 110 | 6.4 | 31 | 94
19 | Cc1[nH]nc(-c2nc3cc4ccccc4cc3[nH]2)c1C(=O)NCC1CCCNC1 (centres unmarked) [Example 28] | > 50 | 125 | 8.99 | 8.5 | 8
20 | Cc1[nH]nc(-c2nc3cc(-c4cccc5c4CCO5)ccc3[nH]2)c1C(=O)NC1CCNCC1 [Example 23] | 25.6 | 125 | 5.36 | 21.1 | 15
21 | Cc1[nH]nc(-c2nc3cc(Cl)c(C(C)C)cc3[nH]2)c1C(=O)NC1CCNCC1 [Example 45] | > 10 | 13 | 5.13 | 11.9 | 13
22 | Cc1[nH]nc(-c2nc3ccc(C4CC4)cc3[nH]2)c1C(=O)NC1CN2CCC1CC2 (centres unmarked) [Example 47] | > 10 | 106 | 3.82 | > 50 | 85
